Measured values taken from ChEMBL document CHEMBL1201862, “PubChem BioAssay data set” (2004).
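1) Cells in 96-well plates. 2) Compound, 48 h, 5 concentrations. 3) Linear interpolation between surrounding doses. 4) Unreached endpoint = highest concentration. GI50 = concentration required for 50% inhibition of growth.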 Active and inactive are the calls of the source. Rule as the data show it: active = GI50 up to about 1.1 µM and inactive = higher.

Key:
Test in all cases: growth of human tumour cells (NCI), 48 h
OVCAR-4 = system: OVCAR-4
SNB-19 = system: SNB-19
DLD-1 = system: DLD-1
U-251 = system: U-251
Malme-3M = system: Malme-3M
NCI-H460 = system: NCI-H460
SN12C = system: SN12C
RPMI-8226 = system: RPMI-8226
TK-10 = system: TK-10
HOP-62 = system: HOP-62
OVCAR-3 = system: OVCAR-3
EKVX = system: EKVX
SK-MEL-5 = system: SK-MEL-5
NCI-H226 = system: NCI-H226
ACHN = system: ACHN
CAKI-1 = system: CAKI-1
SK-OV-3 = system: SK-OV-3
HT-29 = system: HT-29
T47D = system: T47D
MDA-N = system: MDA-N

Measured: GI50

COc1ccc(C2Oc3cc(OC)c(OC)cc3C2CCl)cc1OC (stereo unspecified)
inactive: OVCAR-4 41.4 µM | SNB-19 > 100 µM | DLD-1 67.5 µM | U-251 > 100 µM | Malme-3M > 100 µM | NCI-H460 > 100 µM | SN12C > 100 µM | RPMI-8226 > 100 µM | TK-10 > 100 µM | HOP-62 > 100 µM | OVCAR-3 > 100 µM | EKVX > 100 µM | SK-MEL-5 34.1 µM | NCI-H226 > 100 µM | ACHN > 100 µM | CAKI-1 > 100 µM

CC(=O)NC1=C(NCc2ccc(Cl)cc2)C(=O)c2ccccc2C1=O
inactive: OVCAR-4 6.85 µM | SNB-19 22.6 µM | DLD-1 6.76 µM | SK-OV-3 18.2 µM | U-251 6.7 µM | Malme-3M 9.4 µM | HT-29 17.8 µM | NCI-H460 10.8 µM | SN12C 13.9 µM | TK-10 8.24 µM | HOP-62 12.5 µM | OVCAR-3 6.4 µM | EKVX 7.62 µM | SK-MEL-5 5.46 µM | NCI-H226 9.59 µM | ACHN 1.84 µM

Cc1cccc(NC(=O)c2c(N)[n+]([O-])c3ccccc3[n+]2[O-])c1
inactive: OVCAR-4 9.98 µM | SNB-19 15.8 µM | DLD-1 11.7 µM | SK-OV-3 21.1 µM | U-251 1.78 µM | Malme-3M 12.7 µM | HT-29 13.7 µM | NCI-H460 12.9 µM | SN12C 4.85 µM | HOP-62 17.1 µM | OVCAR-3 15.6 µM | EKVX 16.9 µM | SK-MEL-5 5.53 µM | NCI-H226 5.66 µM | ACHN 16.1 µM | CAKI-1 13.9 µM

COc1cc2ccc(CC#N)cc2cc1OC
inactive: OVCAR-4 93.5 µM | SNB-19 > 100 µM | DLD-1 > 100 µM | SK-OV-3 > 100 µM | U-251 > 100 µM | Malme-3M > 100 µM | HT-29 > 100 µM | NCI-H460 > 100 µM | SN12C > 100 µM | TK-10 > 100 µM | HOP-62 > 100 µM | EKVX 83.8 µM | SK-MEL-5 62.1 µM | NCI-H226 > 100 µM | ACHN > 100 µM | CAKI-1 45.9 µM

N#Cc1cccc(/C=N/N/C(N)=N/O)c1
inactive: OVCAR-4 20.9 µM | SNB-19 > 100 µM | DLD-1 53.2 µM | SK-OV-3 27.5 µM | U-251 59.6 µM | Malme-3M 85.1 µM | HT-29 45.5 µM | NCI-H460 32.1 µM | SN12C 99.8 µM | TK-10 37.6 µM | HOP-62 92.7 µM | OVCAR-3 > 100 µM | EKVX 9.18 µM | NCI-H226 56.1 µM | ACHN 31.7 µM | CAKI-1 17.1 µM

N=C1OC(c2c[nH]c3ccc(OCc4ccccc4)cc23)C(O)=C1O (stereo unspecified)
inactive: OVCAR-4 > 100 µM | SNB-19 > 100 µM | SK-OV-3 > 100 µM | U-251 > 100 µM | Malme-3M > 100 µM | T47D > 100 µM | HT-29 > 100 µM | NCI-H460 > 100 µM | SN12C > 100 µM | RPMI-8226 > 100 µM | TK-10 > 100 µM | MDA-N > 100 µM | HOP-62 > 100 µM | OVCAR-3 > 100 µM | EKVX > 100 µM | SK-MEL-5 > 100 µM | NCI-H226 > 100 µM | ACHN > 100 µM | CAKI-1 > 100 µM

COC(=O)C1Cc2ccc(O)c(O)c2CN1 (stereo unspecified)
inactive: OVCAR-4 19.3 µM | SNB-19 38.3 µM | SK-OV-3 > 100 µM | U-251 17.4 µM | Malme-3M 32.1 µM | T47D 71.9 µM | HT-29 23.3 µM | NCI-H460 56.9 µM | SN12C 16.4 µM | RPMI-8226 24.2 µM | TK-10 > 100 µM | MDA-N 16.4 µM | HOP-62 > 100 µM | OVCAR-3 35.5 µM | EKVX > 100 µM | SK-MEL-5 15.1 µM | NCI-H226 > 100 µM | ACHN > 100 µM | CAKI-1 > 100 µM

CC1=C(CO)C(=O)OC(C(C)C2CCC3C4CC5OC56C(O)C(N5CC5)=CC(=O)C6(C)C4CCC23C)C1 (stereo unspecified)
inactive: OVCAR-4 7.19 µM | SNB-19 2.04 µM | DLD-1 4.93 µM | U-251 4.22 µM | Malme-3M 12.6 µM | HT-29 3.94 µM | NCI-H460 9.44 µM | SN12C 6.58 µM | RPMI-8226 3.35 µM | TK-10 10.1 µM | HOP-62 18.5 µM | OVCAR-3 3.43 µM | EKVX 12.2 µM | SK-MEL-5 12.8 µM | NCI-H226 14.2 µM | ACHN 5.74 µM

O=C(O)c1ccccc1/N=C/c1ccc(N(CCCl)CCCl)cc1
inactive: OVCAR-4 > 100 µM | SNB-19 > 100 µM | DLD-1 > 100 µM | SK-OV-3 > 91.2 µM | U-251 78 µM | Malme-3M > 100 µM | HT-29 > 100 µM | NCI-H460 31.5 µM | SN12C > 85.5 µM | RPMI-8226 > 100 µM | HOP-62 1.31 µM | OVCAR-3 > 100 µM | EKVX 64.1 µM | SK-MEL-5 > 100 µM | CAKI-1 9.75 µM

COc1cc(C(=O)Nc2c3ccccc3nc3ccccc23)cc(OC)c1OC
inactive: OVCAR-4 > 100 µM | SNB-19 > 95.1 µM | SK-OV-3 > 100 µM | U-251 > 100 µM | Malme-3M > 78.3 µM | T47D > 100 µM | HT-29 > 100 µM | NCI-H460 > 70.8 µM | SN12C > 100 µM | RPMI-8226 > 100 µM | TK-10 > 100 µM | MDA-N 30 µM | HOP-62 > 36.3 µM | OVCAR-3 98.6 µM | EKVX > 59 µM | SK-MEL-5 > 100 µM | NCI-H226 > 100 µM | ACHN > 50.1 µM | CAKI-1 > 22.1 µM

O=C1C(Cl)=C(NCCc2ccc(O)cc2)C(=O)c2c(O)ccc(O)c21
inactive: OVCAR-4 > 10 µM | SNB-19 > 10 µM | SK-OV-3 > 10 µM | U-251 > 10 µM | Malme-3M 1.88 µM | T47D > 10 µM | HT-29 4.27 µM | NCI-H460 7.46 µM | SN12C > 10 µM | RPMI-8226 > 10 µM | TK-10 > 10 µM | MDA-N > 10 µM | HOP-62 6.56 µM | OVCAR-3 4.8 µM | EKVX > 10 µM | SK-MEL-5 3.72 µM | NCI-H226 > 10 µM | ACHN > 10 µM | CAKI-1 > 10 µM

CCCCCc1cc2c(cc1O)CC[C@@H]1[C@@H]2CC[C@]2(C)[C@@H](O)CC[C@@H]12
inactive: OVCAR-4 21.6 µM | SNB-19 18.8 µM | SK-OV-3 21.8 µM | U-251 17.6 µM | Malme-3M 19.1 µM | T47D 24.5 µM | HT-29 20 µM | NCI-H460 17.4 µM | SN12C 16.2 µM | RPMI-8226 19.1 µM | TK-10 16.3 µM | MDA-N 17.9 µM | HOP-62 22.4 µM | OVCAR-3 14.3 µM | EKVX 17.9 µM | SK-MEL-5 19.8 µM | NCI-H226 14.5 µM | ACHN 14.1 µM | CAKI-1 21.5 µM
